Laboratory results: article PMC6695594, “Discovery of (5-Phenylfuran-2-yl)methanamine Derivatives as New Human Sirtuin 2 Inhibitors” (Molecules, 2019)

Columns and labels:
human sirtuin 2 (SIRT2) [1] = target: T1, human sirtuin 2 (SIRT2) (Homo sapiens, UniProt Q8IXJ6); assay: fluorogenic p2270 trypsin-coupled assay, recombinant human SIRT2; assay type: biochemical; conditions: read-out: Inhibition% ^1/SIRT2-p2270 / @ 100 μM
T1 sequence (Q8IXJ6 2-389): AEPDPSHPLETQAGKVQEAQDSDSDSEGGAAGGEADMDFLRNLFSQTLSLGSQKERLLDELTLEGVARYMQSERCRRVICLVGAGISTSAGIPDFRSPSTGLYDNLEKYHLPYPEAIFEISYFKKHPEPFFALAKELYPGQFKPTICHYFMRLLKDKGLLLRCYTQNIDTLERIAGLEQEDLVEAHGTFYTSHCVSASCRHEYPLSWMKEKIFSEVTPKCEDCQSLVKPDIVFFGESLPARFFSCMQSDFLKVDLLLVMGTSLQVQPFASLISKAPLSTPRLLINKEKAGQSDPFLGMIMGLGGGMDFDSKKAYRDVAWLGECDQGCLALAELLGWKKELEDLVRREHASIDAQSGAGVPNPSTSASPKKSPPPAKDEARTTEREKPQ

human sirtuin 2 (SIRT2) [2] = target: T1, human sirtuin 2 (SIRT2); assay: biochemical; set-up: Fluorogenic p2270 (Ac-Glu-Thr-Asp-Lys(Dec)-AMC) trypsin-coupled assay on recombinant human SIRT2, ex 380/em 460 nm; conditions: for inhibition at 10 µM: read-out: Inhibition% ^1/SIRT2-p2270 / @ 10 μM
Procedure: This study tested the inhibitory activities of the synthesized compounds against recombinant human SIRT2 proteins using a fluorogenic substrate p2270(Ac-Glu-Thr-Asp-Lys(Dec)-AMC)-coupled trypsin assay. The assay buffer is 25 mM Tris–HCl pH 8.0, 150 mM NaCl, and 10% glycerol. The test compounds were added to 60 μL of reaction mixture containing SIRT2 enzymes (0.2 μM), and each compound was prepared in a 3-fold dilution series (300 μM–15 nM) with the final DMSO concentration < 1%. After incubation at 25 °C for 30 min, the reaction started by the addition of the substrate p2270 ([…]) and NAD^+([…]) at 25 °C. After 2 h, 50 μL 3~4 U/μL trypsin and 4 mM nicotinamide were added to terminate the reaction, followed by further incubation for 30 min at 25 °C. The fluorescence intensity was measured using a microplate reader (λex = 380 nm, λem = 460 nm). All determinations were performed in triplicate. The IC50 values were obtained using GraphPad Prism software as described previously. The enzyme activity assays were performed using a fluorogenic-based method, and Ac-Glu-Thr-Asp-Lys(Dec)-AMC, termed p2270, was used as the substrate. The SAR studies with all of the synthesized (5-phenylfuran-2-yl)methanamine derivatives (Table 1 and Table 2) were carried out. The compounds bearing various linkers or different substituents (A moiety) at 3- or 4-position of the [compound left out] of (5-phenylfuran-2-yl)methanamine scaffold (Table 1) were firstly investigated.

human sirtuin 2 (SIRT2) [3] = target: T1, human sirtuin 2 (SIRT2); assay: fluorogenic p2270 trypsin-coupled assay, recombinant human SIRT2; assay type: biochemical

Row | SMILES | inhibition at 100 µM (human sirtuin 2 (SIRT2) [1]) [%] | inhibition at 10 µM (human sirtuin 2 (SIRT2) [2]) [%] | inhibition at 100 µM (human sirtuin 2 (SIRT2) [2]; read-out: Inhibition% ^1/SIRT2-p2270 / @ 100 μM) [%] | IC50 (human sirtuin 2 (SIRT2) [3]) [nM]
1 | CCOC(=O)c1ccc(-c2ccc(CNC(=O)Nc3cccnc3)o2)cc1 [compound 17, Ethyl 4-(5-((3-(pyridin-3-yl)ureido)methyl)furan-2-yl)benzoate] | 50 ± 4 |  |  | 
2 | N#C/C(=C\c1ccc(-c2cc(Cl)ccc2Cl)o1)C(=O)Nc1cccc2ncccc12 [AGK2] |  | 30 ± 5 | 80 ± 6 | 
3 | O=C(NCc1ccc(-c2ccc(C(=O)O)cc2)o1)Nc1cccc2ncccc12 [compound 20, 4-(5-((3-(quinolin-5-yl)ureido)methyl)furan-2-yl)benzoic acid] | 63 ± 5 | 35 ± 3 |  | 
4 | O=C(NCc1ccc(-c2ccc(C(F)(F)F)cc2)o1)Nc1cccnc1 [compound 18, 1-(Pyridin-3-yl)-3-((5-(4-(trifluoromethyl)phenyl)furan-2-yl)methyl)urea] | 40 ± 5 |  |  | 
5 | O=C(NCc1ccc(-c2ccc(C(=O)O)cc2)o1)Nc1ccccc1 [compound 21, 4-(5-((3-Phenylureido)methyl)furan-2-yl)benzoic Acid] | 46 ± 4 | 33 ± 3 |  | 
6 | O=C(NCc1ccc(-c2ccc(C(=O)O)c(O)c2)o1)Nc1ccccc1 [compound 24, 2-Hydroxy-4-(5-((3-phenylureido)methyl)furan-2-yl)benzoic Acid] | 43 ± 2 |  |  | 
7 | O=C(NCc1ccc(-c2ccc(C(=O)O)cc2)o1)Nc1cccnc1 [compound 25, 4-(5-((3-(Pyridin-3-yl)ureido)methyl)furan-2-yl)benzoic Acid] |  |  |  | 2470
8 | O=C(O)c1ccc(-c2ccc(CNC(=S)Nc3ccccc3)o2)cc1 [compound 22, 4-(5-((3-Phenylthioureido)methyl)furan-2-yl)benzoic Acid] | 44 ± 5 | 23 ± 3 |  | 
9 | O=C(NCc1ccc(-c2cc(Cl)ccc2Cl)o1)Nc1cccc2ncccc12 [compound 12, 1-((5-(2,5-Dichlorophenyl)furan-2-yl)methyl)-3-(quinolin-5-yl)urea] | 60 ± 3 | 33 ± 3 |  | 
